How the values were obtained:
GH release [1] = assay: stimulation of GH release in vitro
[2] = test system: human pituitary gland tissues; assay: binding affinity to human pituitary gland tissues; conditions: compared with Ghrelin, hexarelin, MK 0677 and JMV 1843
GH release [3] = assay: GH release in vivo after subcutaneous injection in neonatal rats

## CC(C)(N)C(=O)N[C@H](Cc1c[nH]c2ccccc12)C(=O)N[C@@H](C=NOCC(N)=O)Cc1c[nH]c2ccccc12 [(Ia), Aib-D-Trp-D-Trpψ[CH=N∼O]Gly-NH2]
GH release [1]
  stimulating the GH release in vitro: remarkably potent
[2]
  binding affinity: comparable to that of the natural ligand Ghrelin and superior to the binding affinity of the synthetic GH secretagogues
GH release [3]; in vivo
  stimulating the GH release in vivo: remarkably potent
GH release [3]; neonatal rats, injected subcutaneously, compared with MK 0677 and hexarelin
  amount of growth hormone released: exceeded the amount released when the standard GH secretagogues MK 0677 and hexarelin were administered
